Literature values in the CATMoS acute toxicity set (Mansouri et al. 2021).
Where “and” joins values, the source holds several entries; their conditions need not be identical. Equal entries are not always repeated.

assay: rat acute oral toxicity; settings: in vivo

Structure (SMILES)	LD50
COc1ccc(CCN(C)CCc2ccc(OC)c(OC)c2)cc1OC	178 mg/kg
CN1C(=O)CCS(=O)(=O)C1c1ccc(Cl)c(Cl)c1 (stereo unspecified)	1050 mg/kg
CCOC(=O)c1ccccc1O	1320 mg/kg
CO[C@H]1C[C@H](O[C@H]2[C@H](C)[C@@H](O[C@@H]3O[C@H](C)C[C@H](N(C)C)[C@H]3O)[C@@H](C)C[C@]3(CO3)C(=O)[C@H](C)[C@@H](O)[C@@H](C)[C@@H](C)OC(=O)[C@@H]2C)O[C@@H](C)[C@@H]1O	6700 mg/kg
CCCN(CCC)CCc1cccc2c1CC(=O)N2	396 mg/kg and 862 mg/kg
Fc1c(Cl)c(Cl)c(Cl)c2[nH]c(C(F)(F)F)nc12	0.847 mg/kg
COc1cccc(N)c1	526 mg/kg
O=NN(CC(F)(F)F)CC(F)(F)F	300 mg/kg
OCC1CC2CCC1C2 (stereo unspecified)	1600 mg/kg
COc1ccccc1C1C(Cl)C(=O)N1c1ccccc1C(=O)O (stereo unspecified)	2400 mg/kg
COc1c2ccoc2cc2oc(C)cc(=O)c12	832 mg/kg
CN(C(=O)C[N+](C)(C)C)C(=O)Oc1cccc2c1OC(C)(C)C2	33.6 mg/kg
CC(C)(C)C(=O)COc1ccc(Cl)cc1	4650 mg/kg
O=C(Cl)Oc1cccc2ccccc12	2550 mg/kg
N#CSc1ccc(N)cc1	240 mg/kg
COP(=O)(OC)Sc1ccc(Cl)cc1	100 mg/kg
c1ccc(Nc2ccc3ccccc3c2)cc1	8730 mg/kg
COP(=S)(OC)SC1OCCOC1SP(=S)(OC)OC (stereo unspecified)	350 mg/kg
C=CCOc1ccccc1C(=O)NC1CCCCC1	1200 mg/kg
CC(OCCCl)OCCCl	310 mg/kg
C=CCOC(=O)CC#N	160 mg/kg
CCN1CN(CO)C(=O)N(CO)C1	8220 mg/kg

Structure (SMILES)	LD50
COP(=S)(OC)Oc1cc(C)c(SC)c(C)c1	1000 mg/kg
COc1ccc2oc(N)nc2c1	1000 mg/kg
N#Cc1cc([N+](=O)[O-])ccc1Cl	3200 mg/kg
CCOc1ccc(C2(c3ccc(OCC)cc3)CC2(Cl)Cl)cc1	755 mg/kg
NCC1CCC=CO1 (stereo unspecified)	1000 mg/kg
C=C(OP(=O)(OCC)OCC)c1ccc(Cl)cc1Cl	1530 mg/kg
CCCCOCCOCCOC(=O)CCCCC(=O)OCCOCCOCCCC	6000 mg/kg
S=C1SSC2=NCCN12	380 mg/kg
Cc1nn(C)c(OCC(=O)c2ccccc2)c1C(=O)c1ccc(Cl)cc1Cl	1640 mg/kg
CC(C)(S)[C@@H](N)C(=O)O	6170 mg/kg
CC=CC#N	167 mg/kg and 501 mg/kg
O=C(O)c1cccc2c(Cl)ccc(C(=O)O)c12	3500 mg/kg
O=C(OCCOC(=O)c1ccccc1)c1ccccc1	5340 mg/kg
CCOP(=S)(OCC)SCn1nc(C)ccc1=O	45 mg/kg
CN1CCN(c2cc3c(nn2)Oc2ccccc2N3C)CC1	1000 mg/kg
Nc1ccc([N+](=O)[O-])cc1[N+](=O)[O-]	285 mg/kg
CCN(CC)C(C)C(=O)c1ccccc1 (stereo unspecified)	400 mg/kg
CCOCCOCCOc1ccccc1	2140 mg/kg
CCC(C)(C)N/C(N)=N/C#N	300 mg/kg
CCCCCCCCCCCC[N+](C)(C)Cc1ccccc1	400 mg/kg and 230 mg/kg
C=COC=O	2820 mg/kg
CCCCCCCCCCCCOCCO	6550 mg/kg

Structure (SMILES)	LD50
Cc1cc(Cl)ccc1NC=O	564 mg/kg
O=C(O)c1cccc(Cl)n1	2180 mg/kg
Cn1c(=O)on(-c2ccc(Cl)c(Cl)c2)c1=O	777 mg/kg
CC1CC=CC2C3OC3(C)C(C)C3C(Cc4ccccc4)NC(=O)C23OC(=O)OC=CC(C)(O)C1=O (stereo unspecified)	9.1 mg/kg
CC1(C)S[C@@H]2[C@H](NC(=O)C(C(=O)O)c3ccsc3)C(=O)N2[C@H]1C(=O)O (stereo partly specified)	16000 mg/kg
NC(=O)CC[C@H](N)C(=O)O	7500 mg/kg
CN1CC[C@]23CCCC[C@H]2[C@H]1Cc1ccc(O)cc13	150 mg/kg
N#CCCl	220 mg/kg
O=C1c2ccccc2C(=O)N1CC1CO1 (stereo unspecified)	4700 mg/kg
FC(F)C(F)(F)OCC(Cn1cncn1)c1ccc(Cl)cc1Cl (stereo unspecified)	1030 mg/kg
O=C(Cc1ccccc1)OCCc1ccccc1	15000 mg/kg
CC1=CCC2C(C1)C2(C)C (stereo unspecified)	4800 mg/kg
CCOC(C1=NCCCN1)c1ccc(Cl)c(Cl)c1 (stereo unspecified)	370 mg/kg
CNC(N)=NC(=N)N	1750 mg/kg
ClC1=C(Cl)[C@]2(Cl)[C@H]3[C@H]([C@@H]4O[C@]4(Cl)[C@@H]3Cl)[C@@]1(Cl)C2(Cl)Cl (racemic)	457 mg/kg
CCOC(N)=O	1810 mg/kg
CNC(=O)ON=C1CSC(C)(C)S1	2 mg/kg
FC(F)(F)c1nc2c(Cl)c(Br)c(Cl)cc2[nH]1	8.78 mg/kg
Cc1cc(C)[nH]n1	1720 mg/kg
CCCOP(=O)(SCCC)SCCC	129 mg/kg
CCCSP(=O)(OCC)Oc1ccc(Sc2ccc(Cl)cc2)cc1 (stereo unspecified)	690 mg/kg
Nc1nc2ccccc2o1	600 mg/kg

Structure (SMILES)	LD50
ClC(Cl)(Cl)Sn1cccn1	350 mg/kg
CC1(C)S[C@@H]2[C@H](NC(=O)COc3ccc(Cl)c(Cl)c3)C(=O)N2[C@H]1C(=O)O	2500 mg/kg
CC1(C)CC(NCCC(=O)NC2CC(C)(C)NC(C)(C)C2)CC(C)(C)N1	4180 mg/kg
CCOc1ccc(-c2ccccc2)cc1CN1CCCC1	30 mg/kg
CCCN1C[C@H](CSC)C[C@@H]2c3cccc4[nH]cc(c34)C[C@H]21	8.4 mg/kg
CCOP(=O)(OCC)SCSP(=S)(OCC)OCC	35.1 mg/kg
CCOc1ccccc1OS(=O)(=O)NC(O)=Nc1nc(OC)cc(OC)n1	2910 mg/kg
CS(=O)(=O)OCCCN(CCCOS(C)(=O)=O)c1ccccc1	38 mg/kg
CC(O)COC(=O)CBr (stereo unspecified)	664 mg/kg
CCOC(C1=NCC(C)(C)N1)c1ccccc1 (stereo unspecified)	510 mg/kg
C[Si](C)(C)CCC(=O)O	3000 mg/kg
Nc1ccc2ccc3cccc4ccc1c2c34	1070 mg/kg
S=c1[nH]c2cc(Cl)ccc2o1	1000 mg/kg
NC(=S)SSC(N)=S	1950 mg/kg
Nn1cnnc1	4800 mg/kg and 13600 mg/kg
COc1cc(-c2ccc(N)c(OC)c2)ccc1N	1920 mg/kg
CN(C)C(=S)N/N=C/c1ccc([N+](=O)[O-])o1	750 mg/kg
CCN(CCCCCCOC(=O)c1ccc(OC)c(OC)c1)C1CCc2cc(OC)ccc2C1 (stereo unspecified)	2830 mg/kg
COP(=O)(NC=O)SC (stereo unspecified)	190 mg/kg
Nc1ccc(S(=O)(=O)O)c2cccc(S(=O)(=O)O)c12	56000 mg/kg
CCCCC(=O)OC1CCC(N2CCCCC2)CC1 (stereo unspecified)	1510 mg/kg
COP(=O)(CCC(=O)NCO)OC	13000 mg/kg

Structure (SMILES)	LD50
O=c1oc2ccccc2c(O)c1C(CC(O)c1ccc(-c2ccc(Br)cc2)cc1)c1ccccc1 (stereo unspecified)	0.49 mg/kg
CO[C@@]1(NC(=O)CSCC#N)C(=O)N2C(C(=O)O)=C(CSc3nnnn3C)CS[C@@H]21	3200 mg/kg
O=Cc1ccc(CO)o1	2500 mg/kg
ClC(Cl)=C1C(Cl)(Cl)C(Cl)=C(Cl)C1(Cl)Cl	3700 mg/kg
Ic1nc(I)c(I)[nH]1	278 mg/kg
CCN(CC)C(=O)CCC(C)=O	4760 mg/kg
C=CCC1(C(C)CC)C(=O)NC(=O)NC1=O (stereo unspecified)	57.5 mg/kg
CCOP(=S)(OCC)SC(CBr)N1C(=O)c2ccccc2C1=O (stereo unspecified)	18 mg/kg
CCC1OC(C)SC1=NOC(=O)NC (stereo unspecified)	15 mg/kg
CCn1c(=O)c2ccccc2n(-c2cccc(C(F)(F)F)c2)c1=O	1500 mg/kg
CCC(C)C(C(=O)OC1CC[N+](C)(C)CC1)c1ccccc1 (stereo unspecified)	720 mg/kg
O=C(Nc1cccc(Cl)c1)OCC#CCOC(=O)Nc1cccc(Cl)c1	2040 mg/kg
Cc1nc([N+](=O)[O-])cn1-c1ccc([N+](=O)[O-])cc1	4810 mg/kg
CN(C)C(=O)SCCCCOc1ccccc1	1150 mg/kg
C=CCOC=O	124 mg/kg
C#CCN1C(=O)CN=C(c2ccccc2)c2cc([N+](=O)[O-])ccc21	876 mg/kg
CCC1(CC)C(=O)N=C(O)NC1=O	600 mg/kg
CCCCCN(N=O)C(N)=O	560 mg/kg
